Values after ≈ are worked out from the molar mass of the structure shown.
system: A. baumannii strain ATCC19606; assay: Minimum inhibitory concentration (MIC) determination, microbroth dilution (CLSI); type: cell-based; conditions: Acinetobacter baumannii, ATCC19606, 20 h, read-out: ATCC19606 MIC
Description: The in vitro antimicrobial activity of the compounds was determined through microbroth minimum inhibitory concentration (MIC) methodology performed according to the Clinical and Laboratory Standard Institute guidelines (CLSI—M07-A9 Jan. 2012. Methods for Dilution Antimicrobial Susceptibility Tests for Bacteria That Grow Aerobically; Approved Standard—Ninth Edition, Clinical and Laboratory Standards Institute, Wayne/PA, US and the CLSI—M100-S24 Jan. 2014. Performance Standards for Antimicrobial Susceptibility Testing; Approved Standard—Fourth Informational Supplement, Clinical and Laboratory Standards Institute, Wayne/PA, US).
The compound stock solution was freshly prepared at 10× the required top concentration for the MIC determination, i.e. at 1280 mg/L, by reconstitution of the dry compound in 50:50 water:DMSO.
Polystyrene non-treated 96 wells microtiter plates were used for preparing panel containing compound serial twofold diluted at two times the final testing concentration (e.g. range from 64 to 0.06 μg/ml) in cation adjusted Mueller Hinton broth medium (CAMHB).
Inoculum was prepared by the “direct colony suspension method”. Colonies of A. baumannii ATCC19606 or clinical isolates were suspended in saline solution and adjusted to 0.5 McFarland, diluted 100 times in CAMHB broth and 50 μl added to each well (final concentration of cells ˜5×10^(5) CFU/ml and Final volume/well of 100 μl). Microtiter plates were sealed and incubated at 35±2° C.
MICs values were read after 20 hours of incubation and recorded as the lowest concentration of the antimicrobial that inhibits more or equal to 80% of growth of the organism as detected by the unaided eye and using a microtiter plate optical density reader (OD 600 nm).
Tables 2, 3, 4 and 5 provide the minimum inhibitory concentration (MIC) in microgram per milliliter of the compounds of present invention obtained against the A. baumannii strain ATCC19606 (Tables 2, 3, 4 and 5).

For `CN1C(=O)[C@H](CCCN)NC(=O)[C@H](CCCN)NCc2ccccc2Sc2ccccc2CNC(=O)[C@@H]1Cc1c[nH]c2ccccc12` [Example 2, (12S,15S,18S)— 15,18-Bis-(3-amino-propyl)-12-(1H-indol-3-ylmethyl)-13-methyl-2-thia-10,13,16,19-tetraaza-tricyclo[19.4.0.0*3,8*]pentacosa-1(21),3,5,7,22,24-hexaene-11,14,17-trione], which MIC is on record?
The MIC was 4 µg/mL (≈ 6.1 µM).

same assay, conditions: Acinetobacter baumannii; A. baumannii ATCC19606; CAMHB; read after 20 hours; >=80% growth inhibition; read-out: ATCC19606 MIC

Which MIC does the source give for `CN1C(=O)[C@H](CCCCN)NC(=O)[C@H](CCCN)NCc2ccccc2Sc2ccccc2CNC(=O)[C@@H]1Cc1c[nH]c2ccccc12` [Example 1, (12S,15S,18S)-15-(4-Amino-butyl)-18-(3-amino-propyl)-12-(1H-indol-3-ylmethyl)-13-methyl-2-thia-10,13,16,19-tetraaza-tricyclo[19.4.0.0*3,8*]pentacosa-1(21),3,5,7,22,24-hexaene-11,14,17-trione] here?
Its MIC is 4 µg/mL (≈ 5.97 µM).

With `CN1C(=O)[C@H](CCCCN)NC(=O)[C@H](C2CCNCC2)NCc2ccccc2Sc2ccccc2CNC(=O)[C@@H]1Cc1c[nH]c2ccccc12` [Example 3, (12S,15S,18S)-15-(4-Amino-butyl)-12-(1H-indol-3-ylmethyl)-13-methyl-18-piperidin-4-yl-2-thia-10,13,16,19-tetraaza-tricyclo[19.4.0.0*3,8*]pentacosa-1(21),3,5,7,22,24-hexaene-11,14,17-trione] as the compound, how does the MIC read?
Its MIC is 16 µg/mL (≈ 23 µM).

`CN1C(=O)[C@H](CCCCN)NC(=O)[C@H](CCCN)NCc2ccccc2Sc2ccc(Cl)cc2CNC(=O)[C@@H]1Cc1c[nH]c2ccccc12` [Example 4, (12S,15S,18S)-15-(4-Amino-butyl)-18-(3-amino-propyl)-6-chloro-12-(1H-indol-3-ylmethyl)-13-methyl-2-thia-10,13,16,19-tetraaza-tricyclo[19.4.0.0*3,8*]pentacosa-1(21),3,5,7,22,24-hexaene-11,14,17-trione] was tested. Which MIC did it give?
The MIC was 1 µg/mL (≈ 1.42 µM).

How did the MIC turn out when `CN1C(=O)[C@H](CCCCN)NC(=O)[C@H](CNC(=N)N)NCc2ccccc2Sc2ccccc2CNC(=O)[C@@H]1Cc1c[nH]c2ccccc12` [Example 5, N-[(11S,14S,17S)-14-(4-Amino-butyl)-17-(1H-indol-3-ylmethyl)-16-methyl-12,15,18-trioxo-2-thia-10,13,16,19-tetraaza-tricyclo[19.4.0.0*3,8*]pentacosa-1(25),3(8),4,6,21,23-hexaen-11-ylmethyl]-guanidine] was run?
The MIC was 32 µg/mL (≈ 46.8 µM).

With `CN1C(=O)[C@H](CCCCN)NC(=O)[C@H](CCCN)NCc2ccccc2Sc2cc(Cl)ccc2CNC(=O)[C@@H]1Cc1c[nH]c2ccccc12` [Example 6, (12S,15S,18S)-15-(4-Amino-butyl)-18-(3-amino-propyl)-5-chloro-12-(1H-indol-3-ylmethyl)-13-methyl-2-thia-10,13,16,19-tetraaza-tricyclo[19.4.0.0*3,8*]pentacosa-1(21),3,5,7,22,24-hexaene-11,14,17-trione] as the compound, how does the MIC read?
Its MIC is 2 µg/mL (≈ 2.84 µM).

With `COc1ccc2c(c1)CNC(=O)[C@H](Cc1c[nH]c3ccccc13)N(C)C(=O)[C@H](CCCCN)NC(=O)[C@H](CCCN)NCc1ccccc1S2` [Example 7, (12S,15S,18S)-15-(4-Amino-butyl)-18-(3-amino-propyl)-12-(1H-indol-3-ylmethyl)-6-methoxy-13-methyl-2-thia-10,13,16,19-tetraaza-tricyclo[19.4.0.0*3,8*]pentacosa-1(21),3,5,7,22,24-hexaene-11,14,17-trione] as the compound, how does the MIC read?
The MIC was 0.5 µg/mL (≈ 0.714 µM).

`Cc1cccc2c1Sc1ccccc1CN[C@@H](CCCN)C(=O)N[C@@H](CCCCN)C(=O)N(C)[C@@H](Cc1c[nH]c3ccccc13)C(=O)NC2` [Example 8, (12S,15S,18S)-15-(4-Amino-butyl)-18-(3-amino-propyl)-12-(1H-indol-3-ylmethyl)-4,13-dimethyl-2-thia-10,13,16,19-tetraaza-tricyclo[19.4.0.0*3,8*]pentacosa-1(21),3,5,7,22,24-hexaene-11,14,17-trione] was tested. Which MIC did it give?
The MIC was 0.5 µg/mL (≈ 0.731 µM).

With `Cc1ccc2c(c1)Sc1ccccc1CN[C@@H](CCCN)C(=O)N[C@@H](CCCCN)C(=O)N(C)[C@@H](Cc1c[nH]c3ccccc13)C(=O)NC2` [Example 9, (12S,15S,18S)-15-(4-Amino-butyl)-18-(3-amino-propyl)-12-(1H-indol-3-ylmethyl)-5,13-dimethyl-2-thia-10,13,16,19-tetraaza-tricyclo[19.4.0.0*3,8*]pentacosa-1(21),3,5,7,22,24-hexaene-11,14,17-trione] as the compound, how does the MIC read?
Its MIC is 16 µg/mL (≈ 23.4 µM).

How did the MIC turn out when `Cc1ccc2c(c1)CNC(=O)[C@H](Cc1c[nH]c3ccccc13)N(C)C(=O)[C@H](CCCCN)NC(=O)[C@H](CCCN)NCc1ccccc1S2` [Example 10, (12S,15S,18S)-15-(4-Amino-butyl)-18-(3-amino-propyl)-12-(1H-indol-3-ylmethyl)-6,13-dimethyl-2-thia-10,13,16,19-tetraaza-tricyclo[19.4.0.0*3,8*]pentacosa-1(21),3,5,7,22,24-hexaene-11,14,17-trione] was run?
The MIC was 2 µg/mL (≈ 2.92 µM).

With `CN1C(=O)[C@H](CCCCN)NC(=O)[C@H](CCCN)NCc2ccccc2Sc2c(Cl)cccc2CNC(=O)[C@@H]1Cc1c[nH]c2ccccc12` [Example 11, (12S,15S,18S)-15-(4-Amino-butyl)-18-(3-amino-propyl)-4-chloro-12-(1H-indol-3-ylmethyl)-13-methyl-2-thia-10,13,16,19-tetraaza-tricyclo[19.4.0.0*3,8*]pentacosa-1(21),3,5,7,22,24-hexaene-11,14,17-trione] as the compound, how does the MIC read?
Its MIC is 0.5 µg/mL (≈ 0.71 µM).

For `CN1C(=O)[C@H](CCCCN)NC(=O)[C@H](CCCN)NCc2ccccc2Sc2c(cccc2C(F)(F)F)CNC(=O)[C@@H]1Cc1c[nH]c2ccccc12` [Example 12, (12S,15S,18S)-15-(4-Amino-butyl)-18-(3-amino-propyl)-12-(1H-indol-3-ylmethyl)-13-methyl-4-trifluoromethyl-2-thia-10,13,16,19-tetraaza-tricyclo[19.4.0.0*3,8*]pentacosa-1(21),3,5,7,22,24-hexaene-11,14,17-trione], which MIC is on record?
The MIC was 0.5 µg/mL (≈ 0.678 µM).

With `CN1C(=O)[C@H](CCCCN)NC(=O)[C@H](CCCN)NCc2ccccc2Sc2cc(C(F)(F)F)ccc2CNC(=O)[C@@H]1Cc1c[nH]c2ccccc12` [Example 13, (12S,15S,18S)-15-(4-Amino-butyl)-18-(3-amino-propyl)-12-(1H-indol-3-ylmethyl)-13-methyl-5-trifluoromethyl-2-thia-10,13,16,19-tetraaza-tricyclo[19.4.0.0*3,8*]pentacosa-1(21),3,5,7,22,24-hexaene-11,14,17-trione] as the compound, how does the MIC read?
The MIC was 2 µg/mL (≈ 2.71 µM).

How did the MIC turn out when `CN1C(=O)[C@H](CCCCN)NC(=O)[C@H](CCCN)NCc2ccccc2Sc2ccc(C(F)(F)F)cc2CNC(=O)[C@@H]1Cc1c[nH]c2ccccc12` [Example 14, (12S,15S,18S)-15-(4-Amino-butyl)-18-(3-amino-propyl)-12-(1H-indol-3-ylmethyl)-13-methyl-6-trifluoromethyl-2-thia-10,13,16,19-tetraaza-tricyclo[19.4.0.0*3,8*]pentacosa-1(21),3,5,7,22,24-hexaene-11,14,17-trione] was run?
Its MIC is 1 µg/mL (≈ 1.36 µM).

For `CN1C(=O)[C@H](CCCCN)NC(=O)[C@H](CCCN)NCc2ccccc2Sc2ccccc2CNC(=O)[C@@H]1Cc1c[nH]c2cc(Cl)ccc12` [Example 15, (12S,15S,18S)-15-(4-Amino-butyl)-18-(3-amino-propyl)-12-(6-chloro-1H-indol-3-ylmethyl)-13-methyl-2-thia-10,13,16,19-tetraaza-tricyclo[19.4.0.0*3,8*]pentacosa-1(21),3,5,7,22,24-hexaene-11,14,17-trione], which MIC is on record?
Its MIC is 32 µg/mL (≈ 45.4 µM).

How did the MIC turn out when `CN1C(=O)[C@H](CCCCN)NC(=O)[C@H](CCCN)NCc2ccccc2Sc2ccccc2CNC(=O)[C@@H]1Cc1cn(C)c2cc(Cl)ccc12` [Example 16, (12S,15S,18S)-15-(4-Amino-butyl)-18-(3-amino-propyl)-12-(6-chloro-1-methyl-1H-indol-3-ylmethyl)-13-methyl-2-thia-10,13,16,19-tetraaza-tricyclo[19.4.0.0*3,8*]pentacosa-1(21),3,5,7,22,24-hexaene-11,14,17-trione] was run?
The MIC was 32 µg/mL (≈ 44.5 µM).

For `CN1C(=O)[C@H](CCCCN)NC(=O)[C@H](CCCN)NCc2ccccc2Sc2ccc(Cl)cc2CNC(=O)[C@@H]1Cc1cn(C)c2ccccc12` [Example 17, (12S,15S,18S)-15-(4-Amino-butyl)-18-(3-amino-propyl)-6-chloro-13-methyl-12-(1-methyl-1H-indol-3-ylmethyl)-2-thia-10,13,16,19-tetraaza-tricyclo[19.4.0.0*3,8*]pentacosa-1(21),3,5,7,22,24-hexaene-11,14,17-trione], which MIC is on record?
Its MIC is 32 µg/mL (≈ 44.5 µM).

With `CN1C(=O)[C@H](CCCCN)NC(=O)[C@H](CCCN)NCc2ccccc2Sc2ccc(Cl)cc2CNC(=O)[C@@H]1Cc1c[nH]c2cc(Cl)ccc12` [Example 18, (12S,15S,18S)-15-(4-Amino-butyl)-18-(3-amino-propyl)-6-chloro-12-(6-chloro-1H-indol-3-ylmethyl)-13-methyl-2-thia-10,13,16,19-tetraaza-tricyclo[19.4.0.0*3,8*]pentacosa-1(21),3,5,7,22,24-hexaene-11,14,17-trione] as the compound, how does the MIC read?
Its MIC is 16 µg/mL (≈ 21.7 µM).

— patent publication US10030047B2 (Hoffmann-La Roche Inc., priority 2015, dated 2018)
